Columns and labels:
MRP8/MRP14 mRNA = assay: Expression of MRP8/MRP14 messenger RNA in reconstructed epidermides; format: cell-based; details: treatment for 7 days
Text: (§1) Ecdysterone was applied to the medium of reconstructed epidermides under the same conditions as those of Example 1.
(§2) After treatment for 7 days, the epidermides were harvested.

MRP8 and MRP14 = assay: Protein markers MRP8 and MRP14 by immunofluorescence on histological slices; format: cell-based; details: reconstructed epidermides, conditions of Example 1
Description: Ecdysterone was added to the medium of reconstructed epidermides under the same conditions as those of Example 1.
The proteins MRP8 and MRP14 are proteins that are strongly expressed in reconstructed skin, in psoriatic skin and by keratinocytes that are hyperproliferative but that have, however, maintained the capacity to differentiate. The analysis of the protein markers MRP8 and MRP14 was performed by immunofluorescence on histological slices.

[1] = system: reconstructed epidermides; assay: Measurement of the thickness of the epidermis (histology, HES staining, image analysis); format: cell-based; details: ecdysterone in culture medium of reconstructed epidermes, 7 days
Description: Reconstructed epidermides were prepared according to the technique of Asselineau et al., 1985 (Asselineau D, Bernard B A, Bailly C. & Darmon M: Epidermal morphogenesis and induction of 67 kD Keratin polypeptide by culture at the air liquid interface Exp Cell Res 159: 536-539).
From the first day of exposure to the air/liquid interface, the epidermides were cultured in the presence of ecdysterone in the culture medium (1 to 1000 μg/ml). The epidermes were cultured for 7 days. The treatment was renewed every 48 hours by changing the culture medium. After treatment for 7 days, the epidermes were harvested. The histological analysis is performed after staining with HES (hematoxylin eosin saffron).
Epidermal thickness measurements were performed on histological slices. To do this, 10 measurements are taken on a field. For each sample, 5 fields are counted. These measurements are performed using a Leica Q600S image analysis system with an ×10 objective lens. The mean thickness obtained for each sample corresponds to 50 measurements taken.

[2] = system: normal human keratinocytes; assay: Cell cycle analysis (DNA content by flow cytometry); format: cell-based; details: as a function of the amount of ecdysterone in the keratinocyte culture medium
Description: The cell cycle analysis consists in studying the DNA content of a cell population by flow cytometry. These studies were performed on normal human keratinocytes cultured as a monolayer in a defined medium (KGM-Clonetics).
The keratinocytes are derived from a mammoplasty. These keratinocytes were isolated and then cultured in KGM medium supplemented with growth factors (EGF: 10 ng/ml, 0.4 μg/ml, insulin 5 μg/ml, BPE (Bovine Pituitary Extract) 4 mL).
The cells are treated with ecdysterone for 8 hours to 48 hours. There is no EGF in the culture medium during the treatment with ecdysterone.
Ecdysterone was tested at the following concentrations: 1 μg/ml, 0.1 μg/ml and 0.01 μg/ml.
The protocol followed for the cell cycle analysis in flow cytometry is described in the following publication: Staiano-Coico L., Higgins P. J., Darzynkiewicz Z. et al; 1986 Human keratinocyte culture. Identification and stagind of epidermal cell subpopulations. J. Clin. Invest. 77, 396-404. The analysis was performed using a Facs Calibur 3C Trieur flow cytometer from the company Becton-Dickinson.

psoriasin mRNA = assay: Expression of psoriasin messenger RNA in reconstructed epidermides; format: cell-based; details: treatment for 7 days
Text: as §1, §2

[3] = system: keratinocytes derived from a mammoplasty; assay: Measurement of cell multiplication of keratinocytes (number of cells per flask); format: cell-based, human
Description: The keratinocytes are derived from a mammoplasty. These keratinocytes were isolated and then cultured in KGM medium (Clonetics) supplemented with growth factor (EGF (Epidermal Growth Factor): 10 ng/ml, 0.4 μg/ml, insulin 5 μg/ml, BPE (Bovine Pituitary Extract) 4 ml/L). The cells are treated with ecdysterone for 8 hours to 48 hours. There is no EGF in the culture medium during the treatment with ecdysterone. […]

## CC(C)(O)CC[C@@H](O)[C@](C)(O)[C@H]1CC[C@@]2(O)C3=CC(=O)[C@@H]4C[C@@H](O)[C@@H](O)C[C@]4(C)[C@H]3CC[C@]12C [Ecdysterone, (2b, 3b, 5b,22R)-2,3,14,20,22,25-hexahydroxycholest-7-en-6-one]
MRP8/MRP14 mRNA
  Reduction of the expression of MRP8/MRP14 mRNA (factor): 1.7
MRP8 and MRP14
  Expression of the proteins MRP8 and MRP14 on histological slices: restricts the expression of MRP8 and MRP14 to the upper layers of the epidermis
[1]
  Parakeratosis or reduction in the thickness of the horny layer: not accompanied by parakeratosis
  Thickness of the epidermis at the level of the live layers: increase in the thickness of the epidermis at the level of the live layers
[2]
  Phases of the cell cycle (cell population between G0/G1 and G2/M): change in the cell population between the phases G0/G1 and G2/M
Psoriasin mRNA
  Reduction of the expression of psoriasin mRNA (factor): 3.5
[3]; 0.001 μg/ml, 16 hours, second series
  No of cells/flask: 3.6 × 10^5 cells/flask
[3]; 0.001 μg/ml, 24 hours, second series
  No of cells/flask: 3.6 × 10^5 cells/flask
[3]; 0.001 μg/ml, 48 hours, second series
  No of cells/flask: 1.6e+06 cells/flask
[3]; 0.01 μg/ml, 16 hours, first series
  No of cells/flask: 0.8 × 10^6 cells/flask
[3]; 0.01 μg/ml, 16 hours, second series
  No of cells/flask: 2.5 × 10^5 cells/flask
[3]; 0.01 μg/ml, 24 hours, first series
  No of cells/flask: 1.0 × 10^6 cells/flask
[3]; 0.01 μg/ml, 24 hours, second series
  No of cells/flask: 5.7 × 10^5 cells/flask
[3]; 0.01 μg/ml, 48 hours, second series
  No of cells/flask: 1.6 × 10^6 cells/flask
[3]; 0.1 μg/ml, 8 hours, first series
  No of cells/flask: 0.8 × 10^6 cells/flask
[3]; 0.1 μg/ml, 16 hours, first series
  No of cells/flask: 1.0 × 10^6 cells/flask
[3]; 0.1 μg/ml, 16 hours, second series
  No of cells/flask: 3.6 × 10^5 cells/flask
[3]; 0.1 μg/ml, 24 hours, first series
  No of cells/flask: 1.1 × 10^6 cells/flask
[3]; 0.1 μg/ml, 24 hours, second series
  No of cells/flask: 5.2 × 10^5 cells/flask
[3]; 0.1 μg/ml, 48 hours, second series
  No of cells/flask: 1.5 × 10^6 cells/flask
[3]; 1 μg/ml, 8 hours, first series
  No of cells/flask: 0.7 × 10^6 cells/flask
[3]; 1 μg/ml, 16 hours, first series
  No of cells/flask: 0.5 × 10^6 cells/flask
[3]; 1 μg/ml, 24 hours, first series
  No of cells/flask: 1.1 × 10^6 cells/flask
[3]; after treatment for 48 hours
  Number of cells relative to the control cells: no significant increase in the number of cells
